# Experimental data as given in patent US20070166547A1, “Use of a layer consisting of hydrophobic linear, or two-dimensional polycyclic aromatics as a barrier layer or an encapsulation and electric components constructed with a layer of this type and comprising organic polymers” (priority 2003, published 2007).
# Tests used:
# [1] = system: embyronic fibroblasts of mouse NIH-3T3; experiment: Endocellular pHi of fibroblasts by microspectrofluorimetry (FDA, BCECF-AM); assay type: cell-based; details: 10 mkM in medium with serum
# Method: The effect of the compounds according to the invention on the endocellular pH, embyronic fibroblasts of mouse NIH-3T3 supplied by the All-Russian Collection of Cellular Cultures of the Institute of Cytology of the Russian Academy of Sciences St. Petersburg was investigated. The cells were grown in the DMEM (Sigma) medium containing 2.2 g/l of sodium bicarbonate with addition of 80.0 mkg/ml of gentamicin and 10.0% embryonal veal serum at a temperature of 37° C. in an atmosphere containing 5.0% of carbon dioxide. For these experiments use was also made of a medium buffer with 5.0 mM of HEPES and 15.0 mM of sodium bicarbonate without serum or with addition of 5.0% serum. The cells were calculated with the help of a hemocytometer. A share of the dead cells was determined by colouring trypan blue.
# The measurements of the endocellular pHi were carried out with the help of colorants FDA (Sigma) and BCECF-AM (Calbiochem) on a microspectrofluorimeter by a standard technique (Koshevoy Yu. V., Akatov V. S., Grobova M. E. Microspectrofluorimeter for measuring endocellular pH (micro pH)”. Devices and equipment for studies in the field of physical-and-chemical biology and biotechnology. Pushchino, 1990. P. 8-14).
# The cells at a temperature of 37° C. were colored within 5 minutes with 5.0 mkM PDA that before the colouring was prepared from a 10.0 mM solution in acetone by dilution for 30 minutes in a phosphatic buffer to 0.1 mM or 2.0 mkM 1.0 mM solution BCECF-AM in DMSO.
# The two-wave method of determining pHi was used based on the ratio intensities of fluorescence of the cells on two wavelengths (Akatov V. S. et all), “Endocellular pH and substrate dependence of proliferation of fibroblasts of Chinese hamster, Cytology, 1991, 33 (7), p. 86-94). The fluorescence was excited by light at λ=490 nm, the emission was recorded simultaneously with two photomultipliers on wavelengths λ=535 nm and λ=570 nm. The K-ratio of the fluorescence on two wavelengths was determined with a deduction of the background fluorescence of the medium near the investigated cells for 40-60 individual cells, which are then averaged taking into account the measurement error. A thermostatically controlled table was used that allowed measurements to be conducted at a temperature of 37° C. An account was taken for the photodynamic damage of the pigmented cells during-long-time continuous illumination by excited light. The readings were taken from a section of the preparation exposed to light for not more than 5 minutes.
# The calibration curves for determining the absolute pHi values by magnitude K were constructed using the Thomas technique (Thomas J. A., Bushbaum R. N., Zimniak A. w Racker E. “Intracellular pH measurements in Ehrlich ascites tumor cells utilizing spectroscopic probe generated in situ”, Biochemistry, 1979, v. 18, p. 2210-2218), for which case the pigmented cells treated for 5-10 minutes with carboxyacidic nigericyn (Calbiochem) at a concentration of 5-10 mkg/ml was placed in a solution with a high content of potassium—130 mM KCl, 1.0 mM MgCl2, 20.0 mM of HEPES) and with pH values from 6.2 to 7.6. The K values were measured in the media with different pH assuming that pHi of the cells equals to the pH of the medium due to the action of nigericyn, which exchanges potassium ions for protons and at a high content of potassium in the medium counterbalances the pH of the medium and cells. Calibration curves were used based on the fluorescence of same medium with addition of 5.0 mkM of fluorescence or BCECF were used to the control the stability of the of the instrument readings.
# The correctness of the technique was confirmed in the experiments on measurements of pH values of cells treated with protonofor monencine raising pH of the cells due to replacement of sodium ions by protons, and by determining the dependence of the change of pHi on the change of the pH of the medium. […]
# [2] = system: embyronic fibroblasts of mouse NIH-3T3; details: 1-5 mkM; 15-20 minutes; cells of mice NSO and NIH-3T3; cited from earlier work
smiles,measurement,setting,value
"CC[C@@]1([C@@H]2O[C@@H]([C@H]3O[C@@](O)(CO)[C@H](C)C[C@@H]3C)C[C@@H]2C)CC[C@H]([C@]2(C)CC[C@]3(C[C@H](O)[C@@H](C)[C@@H]([C@@H](C)[C@@H](OC)[C@H](C)C(=O)O)O3)O2)O1 [monensine, reference compound]",rise of pHi,[1],0.12 pH unit
same,increase of pHi,[2],0.2 unit
